Data on two compounds can be found in ChEMBL document CHEMBL3414511, “Synthesis of a novel class of substituted benzothiophene or benzofuran derivatives as BMP-2 up-regulators and evaluation of the BMP-2-up-regulating effects in vitro and the effects on glucocorticoid-induced osteoporosis in rats” (Eur J Med Chem, 2015).

In data set [1] the test system is Rattus norvegicus. Put plainly: Toxicity in glucocorticoid-induced Wistar rat osteoporosis model assessed as white blood cells at 5 mg/kg/day, po administered six times a week for 3 months (reference value: 6.28 +/- 2.78 x 10^9/L). It is filed as organism-based. Set-up: route oral. Conditions: in vivo.
In data set [2] the test system is Rattus norvegicus. Put plainly: Toxicity in glucocorticoid-induced Wistar rat osteoporosis model assessed as lymph level at 5 mg/kg/day, po administered six times a week for 3 months (reference value: 50.35 +/- 12.96%). It is filed as organism-based. Set-up: route oral. As to conditions: in vivo.
The subject of data set [3] is Rattus norvegicus. Put plainly: Toxicity in glucocorticoid-induced Wistar rat osteoporosis model assessed as neutrophilic granulocytes level at 5 mg/kg/day, po administered six times a week for 3 months (reference value: 31.95 +/- 8.33%). As to conditions: in vivo. Format: organism-based. Set-up: route oral.
Data set [4] deals with Rattus norvegicus. Description: Toxicity in glucocorticoid-induced Wistar rat osteoporosis model assessed as aspartate transaminase level at 5 mg/kg/day, po administered six times a week for 3 months (reference value: 177.55 +/- 116.98 U/L). Format: organism-based. Set-up: route oral. As to conditions: in vivo.
The subject of data set [5] is Rattus norvegicus. Put plainly: Toxicity in glucocorticoid-induced Wistar rat osteoporosis model assessed as alanine transaminase level at 5 mg/kg/day, po administered six times a week for 3 months (reference value: 43.73 +/- 36.21 U/L). Set-up: route oral. Conditions: in vivo. It is filed as organism-based.
Data set [6] has as its system Rattus norvegicus. Description: Toxicity in glucocorticoid-induced Wistar rat osteoporosis model assessed as triglycerides level at 5 mg/kg/day, po administered six times a week for 3 months (reference value: 1.13 +/- 0.69 mmol/L). Format: organism-based. Set-up: route oral. As to conditions: in vivo.
In data set [7] the test system is Rattus norvegicus. Description: Antiosteoporotic activity in glucocorticoid-induced Wistar rat osteoporosis model assessed as trabecular bone volume at 5 mg/kg/day, po administered six times a week for 3 months by fluorescence assay (reference value: 33.09 +/- 5.15%). It is filed as functional, Trabecula.
Data set [8] relates to Rattus norvegicus. Put plainly: Antiosteoporotic activity in glucocorticoid-induced Wistar rat osteoporosis model assessed as trabecula formation surface at 5 mg/kg/day, po administered six times a week for 3 months by fluorescence assay (reference value: 7.82 +/- 2.46%). Format: functional.
Data set [9] concerns Rattus norvegicus. Put plainly: Antiosteoporotic activity in glucocorticoid-induced Wistar rat osteoporosis model assessed as trabecula resorption surface at 5 mg/kg/day, po administered six times a week for 3 months by fluorescence assay (reference value: 7.22 +/- 2.04%). It is filed as functional.
The subject of data set [10] is Rattus norvegicus. Description: Antiosteoporotic activity in glucocorticoid-induced Wistar rat osteoporosis model assessed as mineral apposition rate at 5 mg/kg/day, po administered six times a week for 3 months by fluorescence assay (reference value: 1.06 +/- 0.27 micrometer/day). It is filed as functional.
Data set [11] concerns Rattus norvegicus. Description: Antiosteoporotic activity in glucocorticoid-induced Wistar rat osteoporosis model assessed as increase in trabecula number at 5 mg/kg/day, po administered six times a week for 3 months by toluidine blue staining-based light microscopic analysis relative to dexamethasone. Format: functional, organism-based.
Data set [12] has as its system Rattus norvegicus. Put plainly: Antiosteoporotic activity in glucocorticoid-induced Wistar rat osteoporosis model assessed as increase in trabecula thickness at 5 mg/kg/day, po administered six times a week for 3 months by toluidine blue staining-based light microscopic analysis relative to dexamethasone. Format: functional, organism-based.
In data set [13] the test system is Rattus norvegicus. Description: Antiosteoporotic activity in glucocorticoid-induced Wistar rat osteoporosis model assessed as increase in trabecula area at 5 mg/kg/day, po administered six times a week for 3 months by toluidine blue staining-based light microscopic analysis relative to dexamethasone. It is filed as functional, organism-based.
The test system of data set [14] is Rattus norvegicus. Description: Antiosteoporotic activity in glucocorticoid-induced Wistar rat osteoporosis model assessed as increase in trabecula connectivity at 5 mg/kg/day, po administered six times a week for 3 months by toluidine blue staining-based light microscopic analysis relative to dexamethasone. It is filed as functional, organism-based.
Data set [15] has as its system Rattus norvegicus. Put plainly: Toxicity in glucocorticoid-induced Wistar rat osteoporosis model assessed as white blood cells at 2.5 mg/kg/day, im administered twice each week for 8 weeks (reference value: 6.28 +/- 2.78 x 10^9/L). Format: organism-based. Set-up: route intramuscular. Conditions: in vivo, 1344 h.
Data set [16] deals with Rattus norvegicus. Put plainly: Toxicity in glucocorticoid-induced Wistar rat osteoporosis model assessed as lymph level at 2.5 mg/kg/day, im administered twice each week for 8 weeks (reference value: 50.35 +/- 12.96%). Format: organism-based. Set-up: route intramuscular. As to conditions: in vivo, 1344 h.
The test system of data set [17] is Rattus norvegicus. Put plainly: Toxicity in glucocorticoid-induced Wistar rat osteoporosis model assessed as neutrophilic granulocytes level at 2.5 mg/kg/day, im administered twice each week for 8 weeks (reference value: 31.95 +/- 8.33%). Set-up: route intramuscular. Conditions: in vivo, 1344 h. Format: organism-based.
Data set [18] concerns Rattus norvegicus. Description: Toxicity in glucocorticoid-induced Wistar rat osteoporosis model assessed as aspartate transaminase level at 2.5 mg/kg/day, im administered twice each week for 8 weeks (reference value: 177.55 +/- 116.98 U/L). Format: organism-based. Set-up: route intramuscular. As to conditions: in vivo, 1344 h.
The subject of data set [19] is Rattus norvegicus. Description: Toxicity in glucocorticoid-induced Wistar rat osteoporosis model assessed as alanine transaminase level at 2.5 mg/kg/day, im administered twice each week for 8 weeks (reference value: 43.73 +/- 36.21 U/L). Format: organism-based. Set-up: route intramuscular. Conditions: in vivo, 1344 h.
Data set [20] relates to Rattus norvegicus. Description: Toxicity in glucocorticoid-induced Wistar rat osteoporosis model assessed as triglycerides level at 2.5 mg/kg/day, im administered twice each week for 8 weeks (reference value: 1.13 +/- 0.69 mmol/L). Conditions: in vivo, 1344 h. Format: organism-based. Set-up: route intramuscular.
Data set [21] deals with Rattus norvegicus. Description: Antiosteoporotic activity in glucocorticoid-induced Wistar rat osteoporosis model assessed as appearance of turbulent and sparse rarefection of trabecula at 2.5 mg/kg/day, im administered twice each week for 8 weeks by toluidine blue staining-based light microscopic analysis. Format: functional, organism-based.
The subject of data set [22] is Rattus norvegicus. Put plainly: Antiosteoporotic activity in glucocorticoid-induced Wistar rat osteoporosis model assessed as trabecular bone volume at 2.5 mg/kg/day, im administered twice each week for 8 weeks by fluorescence assay (reference value: 33.09 +/- 5.15%). As to conditions: route intramuscular. It is filed as functional, Trabecula.
In data set [23] the test system is Rattus norvegicus. Put plainly: Antiosteoporotic activity in glucocorticoid-induced Wistar rat osteoporosis model assessed as trabecula formation surface at 2.5 mg/kg/day, im administered twice each week for 8 weeks by fluorescence assay (reference value: 7.82 +/- 2.46%). Conditions: route intramuscular. Format: functional.
For data set [24], the system named is Rattus norvegicus. Description: Antiosteoporotic activity in glucocorticoid-induced Wistar rat osteoporosis model assessed as trabecula resorption surface at 2.5 mg/kg/day, im administered twice each week for 8 weeks by fluorescence assay (reference value: 7.22 +/- 2.04%). It is filed as functional. As to conditions: route intramuscular.
The test system of data set [25] is Rattus norvegicus. Put plainly: Antiosteoporotic activity in glucocorticoid-induced Wistar rat osteoporosis model assessed as mineral apposition rate at 2.5 mg/kg/day, im administered twice each week for 8 weeks by fluorescence assay (reference value: 1.06 +/- 0.27 micrometer/day). Format: functional. As to conditions: route intramuscular.

Each structure is given as a SMILES string. The source made the active and inactive calls. The rule behind the calls is not given here.

With `O=C(c1ccc(OCCN2CCCCC2)cc1)c1c(-c2ccc(O)cc2)sc2cc(O)ccc12` [RALOXIFENE], the Activity in [1] was determined as 2.94 ×10⁹ /L; in data set [2], 39.05%; in [3], 40.58%; in data set [4], 115.27 U/L; in data set [5], 35.09 U/L; in [6], 0.76 mmol/L. The Activity came to 34.35% in data set [7], 7.04% in [8], 7.82% in data set [9] and 1.16 micrometer/day in data set [10]. The outcome in data set [11], in data set [12], in [13] and in data set [14] was Active.

For `C[C@@H]1C[C@H]2[C@@H]3CCC4=CC(=O)C=C[C@]4(C)[C@@]3(F)[C@@H](O)C[C@]2(C)[C@@]1(O)C(=O)CO` [DEXAMETHASONE], the Activity in data set [15] worked out at 6.58 ×10⁹ /L; in [16], 25.77%; in [17], 53.03%; in [18] it was 213 U/L; in data set [19] it was 63.64 U/L; in data set [20] it was 1.63 mmol/L. In addition, the Activity in [22] came out at 18.46%; in data set [23], 4.49%; in data set [24] it was 11.8%; in data set [25] it was 0.76 micrometer/day. Besides, the result in data set [21] was inactive.
